Read-outs that look alike come from different tables or passages of the source. Marks after values point to notes of the source that are not given here.
Tests used:
[1] = Drug-drug interaction study, 2D regimen with pravastatin; format: in vivo, human healthy volunteers; conditions: for increase in AUC upon coadministration / increase in Cmax upon coadministration: pravastatin + 2D regimen vs alone
[2] = Drug-drug interaction study, 2D regimen with digoxin; format: in vivo, human healthy volunteers; conditions: for change in the Cmax and AUC values upon coadministration: 2D regimen + digoxin vs 2D regimen alone
[3] = Drug-drug interaction study, 2D regimen with rosuvastatin; format: in vivo, human healthy volunteers; conditions: for increase in AUC upon coadministration / increase in Cmax upon coadministration: rosuvastatin + 2D regimen vs alone
[4] = format: in vivo, human healthy volunteers; conditions: coadministration vs alone; except in the ketoconazole study
[5] = Drug-drug interaction study, 2D regimen with duloxetine, plasma pharmacokinetics; format: in vivo, human healthy volunteers; conditions: for change in the Cmax and AUC values upon coadministration: duloxetine + 2D regimen vs alone
[6] = Drug-drug interaction study, 2D regimen with omeprazole; format: in vivo, human healthy volunteers; conditions: for change in the Cmax and AUC values upon coadministration: 2D regimen + omeprazole vs 2D regimen alone
[7] = in vitro; cited from earlier work
[8] = Drug-drug interaction study, 2D regimen with warfarin; format: in vivo, human healthy volunteers; conditions: for change in the Cmax and AUC values upon coadministration: warfarin + 2D regimen vs alone; for Cmax, Coadministration / AUC (AUC∞), Alone: warfarin study, geometric mean (%CV); for Cmax, Coadministration: warfarin + 2D regimen; for AUC (AUC∞), Alone: warfarin without 2D regimen
[9] = human, in vivo
[10] = format: in vivo, human healthy volunteers; conditions: for change in the Cmax and AUC values in the presence of the 2D regimen: except escitalopram AUC
[11] = system: genotypes other than genotype 1; conditions: cited from earlier work
[12] = system: HCV subtypes 1a, 1b, 2a, 3a, 4a, and 6a; conditions: cited from earlier work
[13] = system: organic anion-transporting polypeptide 1B1/B3 (OATP1B1/B3); conditions: in vitro, at clinically relevant concentrations; cited from earlier work
[14] = cited from earlier work
[15] = system: breast cancer resistance protein (BCRP); conditions: in vitro, at clinically relevant concentrations; cited from earlier work
P-glycoprotein (P-gp) = conditions: in vitro, at clinically relevant concentrations; cited from earlier work
[16] = Drug-drug interaction study, 2D regimen with ketoconazole; format: in vivo, human healthy volunteers; conditions: ketoconazole + 2D regimen vs alone
[17] = 2D regimen + rosuvastatin vs 2D regimen alone
[18] = escitalopram + 2D regimen vs escitalopram alone
[19] = escitalopram study, escitalopram + 2D regimen, geometric mean (%CV)
[20] = omeprazole + 2D regimen vs omeprazole alone
[21] = digoxin + 2D regimen vs digoxin alone

CC[C@H](C)C(=O)O[C@H]1C[C@H](O)C=C2C=C[C@H](C)[C@H](CC[C@@H](O)C[C@@H](O)CC(=O)O)[C@H]21 [Pravastatin, pravastatin]
increase in AUC upon coadministration [1]: 76% | increase in Cmax upon coadministration [1]: 43%

CC(C)c1nc(CN(C)C(=O)N[C@H](C(=O)N[C@@H](Cc2ccccc2)C[C@H](O)[C@H](Cc2ccccc2)NC(=O)OCc2cncs2)C(C)C)cs1 [Ritonavir, ritonavir]
change in the Cmax and AUC values upon coadministration [2]: ≤ 15% | change in Cmax and AUC values upon coadministration [3, 17]: ≤ 12% | Tmax and t1/2 (where calculated) [4]: not affected in a meaningful way | change in the Cmax and AUC values upon coadministration [5]: ≤ 10% | change in the Cmax and AUC values upon coadministration [6]: ≤ 7% | increase in AUC upon coadministration [1]: 37% | increase in Cmax upon coadministration [1]: 37% | metabolic pathway [7]: primarily metabolized by cytochrome P450 3A (CYP3A) | change in the Cmax and AUC values upon coadministration [8]: ≤ 15%

C=CCN1CC[C@]23c4c5ccc(O)c4O[C@H]2C(=O)CC[C@@]3(O)[C@H]1C5 [Naloxone, naloxone]
AUC (AUCtau, AUC24), dose normalized, Alone [9]: 139 (53)^d^,^j pg · h/ml/mg | AUC (AUCtau, AUC24), dose normalized, Coadministration [9]: 154 (76)^d^,^j pg · h/ml/mg | Cmax, dose normalized, Alone [9]: 59.0 (44)^i pg/ml/mg | Cmax, dose normalized, Coadministration [9]: 58.1 (61)^i pg/ml/mg | change in the Cmax and AUC values upon coadministration [9]: ≤ 11%

CNCCC[C@@]1(c2ccc(F)cc2)OCc2cc(C#N)ccc21 [S-Desmethylcitalopram, S-desmethylcitalopram]
change in the Cmax and AUC values in the presence of the 2D regimen [10, 18]: ≤ 20% | AUC (AUC∞), Coadministration [10, 19]: 167 (11)^b ng · h/ml | Cmax, Coadministration [10, 19]: 1.77 (26) ng/ml | AUC (AUC∞), Alone ([10]; escitalopram study, escitalopram without 2D regimen, geometric mean (%CV)): 153 (16)^b ng · h/ml

COc1c(-c2ccc3cc(NS(C)(=O)=O)ccc3c2)cc(-n2ccc(=O)[nH]c2=O)cc1C(C)(C)C [Dasabuvir, dasabuvir]
activity against HCV genotypes other than genotype 1 [11]: not active

Cc1cnc(C(=O)N[C@H]2CCCCC/C=C\[C@@H]3C[C@@]3(C(=O)NS(=O)(=O)C3CC3)NC(=O)[C@@H]3C[C@@H](Oc4nc5ccccc5c5ccccc45)CN3C2=O)cn1 [Paritaprevir, paritaprevir]
in vitro antiviral activity [12]: show in vitro antiviral activity | change in the Cmax and AUC values upon coadministration [2]: ≤ 15% | increase in AUC upon coadministration [3]: 22% | increase in Cmax upon coadministration [3]: 40% | Tmax and t1/2 (where calculated) [4]: not affected in a meaningful way | change in the Cmax and AUC values upon coadministration [5]: ≤ 10% | change in the Cmax and AUC values upon coadministration [6]: ≤ 7% | OATP1B1/B3 inhibition [13]: inhibitor | exposures higher than those observed with the 150-mg paritaprevir dose ([14]; paritaprevir 200 mg): approximately 93% | exposures higher than those observed with the 150-mg paritaprevir dose ([14]; paritaprevir 250 mg): ~250% | increase in AUC upon coadministration [1]: 33% | increase in Cmax upon coadministration [1]: 44% | metabolic pathway [7]: primarily metabolized by cytochrome P450 3A (CYP3A) | BCRP inhibition [15]: potential inhibitors | P-gp inhibition (P-glycoprotein (P-gp)): potential inhibitors | change in the Cmax and AUC values upon coadministration [8]: ≤ 15% | increase in AUC upon coadministration [16]: 116% | increase in Cmax upon coadministration [16]: 72% | mean t1/2, fold longer upon coadministration [16]: more than 2 fold | increase in exposures upon coadministration ([16]; Cmax and AUC): up to 116%

CNCC[C@H](Oc1cccc2ccccc12)c1cccs1 [Duloxetine, duloxetine]
change in the Cmax and AUC values upon coadministration [5]: ≤ 20% | AUC(0-inf) ([5]; human, plasma, oral, 60 mg): 648 ng·h/mL

CC(=O)C[C@@H](c1ccccc1)c1c(O)c2ccccc2oc1=O [S-Warfarin, S-warfarin]
change in the Cmax and AUC values upon coadministration [8]: ≤ 15% | Cmax, Coadministration [8]: 240 (14) ng/ml | AUC (AUC∞), Alone [8]: 13,000 (25)^b ng · h/ml

COc1ccc2[nH]c([S+]([O-])Cc3ncc(C)c(OC)c3C)nc2c1 (stereo not drawn) [Omeprazole, omeprazole]
AUC(0-t) ([6]; human, plasma, 40 mg): 1170 ng·h/mL | decrease in exposures upon coadministration [6, 20]: approximately 50% | reduction in AUC in the presence of the 2D regimen [6, 20]: 54% | reduction in Cmax in the presence of the 2D regimen [6, 20]: 52%

CC(=O)C[C@H](c1ccccc1)c1c(O)c2ccccc2oc1=O [R-Warfarin, R-warfarin]
Cmax, Coadministration [8]: 255 (16) ng/ml | AUC (AUC∞), Alone [8]: 19,900 (21)^b ng · h/ml

COC(=O)N[C@H](C(=O)N1CCC[C@H]1C(=O)Nc1ccc([C@@H]2CC[C@@H](c3ccc(NC(=O)[C@@H]4CCCN4C(=O)[C@@H](NC(=O)OC)C(C)C)cc3)N2c2ccc(C(C)(C)C)cc2)cc1)C(C)C [Ombitasvir, ombitasvir]
in vitro antiviral activity [12]: show in vitro antiviral activity | change in the Cmax and AUC values upon coadministration [2]: ≤ 15% | change in Cmax and AUC values upon coadministration [3, 17]: ≤ 12% | lower Cmax upon coadministration [3, 17]: 12% | Tmax and t1/2 (where calculated) [4]: not affected in a meaningful way | change in the Cmax and AUC values upon coadministration [5]: ≤ 10% | change in the Cmax and AUC values upon coadministration [6]: ≤ 7% | decrease in Cmax or AUC value upon coadministration ([1]; 2D regimen + pravastatin vs 2D regimen alone): ≤ 6% | metabolic pathway [7]: predominantly metabolized by amide hydrolysis followed by oxidative metabolism | change in the Cmax and AUC values upon coadministration [8]: ≤ 15% | decrease in Cmax upon coadministration [16]: 2% | increase in AUC upon coadministration [16]: 26%

C[C@H]1O[C@@H](O[C@H]2[C@@H](O)C[C@H](O[C@H]3[C@@H](O)C[C@H](O[C@H]4CC[C@@]5(C)[C@H](CC[C@@H]6[C@@H]5C[C@@H](O)[C@]5(C)[C@@H](C7=CC(=O)OC7)CC[C@]65O)C4)O[C@@H]3C)O[C@@H]2C)C[C@H](O)[C@@H]1O [Digoxin, digoxin]
increase in AUC upon coadministration [2, 21]: 36% | increase in C24 upon coadministration [2, 21]: 24% | increase in Cmax upon coadministration [2, 21]: 58% | ratio of fraction excreted (fraction of unchanged drug eliminated in the urine) ([2]; digoxin + 2D regimen vs digoxin alone, urine): 1.01 | AUC(0-inf) ([2]; human, plasma, 0.5 mg): 27.8 ng·h/mL

CN(C)CCC[C@@]1(c2ccc(F)cc2)OCc2cc(C#N)ccc21 [Escitalopram, escitalopram]
decrease in AUC in the presence of the 2D regimen [10, 18]: 25% | change in the Cmax and AUC values in the presence of the 2D regimen [10, 18]: ≤ 20% | AUC(0-inf) ([10]; human, plasma, 10 mg): 262 ng·h/mL

CC(C)c1nc(N(C)S(C)(=O)=O)nc(-c2ccc(F)cc2)c1/C=C/[C@@H](O)C[C@@H](O)CC(=O)O [Rosuvastatin, rosuvastatin]
increase in AUC upon coadministration [3]: 33% | increase in Cmax upon coadministration [3]: 161% | increase in exposures upon coadministration ([3]; rosuvastatin + 2D regimen vs rosuvastatin alone): ≤ 161%

Reference: paper PMC4704150 (Antimicrobial Agents and Chemotherapy, 2015)
